The text below walks through data of patent publication US4450269A, “Mono-5-substituted-3-chloro-4H-1,2,6-thiadiazin-4-one antifungal agents” (FMC Corporation, priority 1980, dated 1984).

As usually defined, the inhibition is the drop in the measured response relative to a control, in per cent.

For one test, the system named is Pythium ultimum. The test can be described thus: Mycelial growth test. The class given is cell-based. The following applies: Globisporangium ultimum, 72 h, PU, read-out: Percent Fungus Growth Inhibition.
The subject of a further test is Fusarium solani. The test can be described thus: Mycelial growth test. The class given is cell-based. As to conditions: Fusarium solani, 72 h; for inhibition at 5 ppm / inhibition at 10 ppm / inhibition at 20 ppm: PS, 72 hours, read-out: Percent Fungus Growth Inhibition; for inhibition at 40 ppm: read-out: Percent Fungus Growth Inhibition, PS, 40 ppm, 72 hours.

As for `Cc1cc(Oc2nsnc(Cl)c2=O)cc(C)c1Br` [Compound 60, 3-[(4-bromo-3,5-dimethyl)-phenoxy]-5-chloro-4H--1,2,6-thiadiazin-4-one], in the test with Pythium ultimum, the inhibition at 5 ppm is 9%, the inhibition at 10 ppm is 0%, the inhibition at 20 ppm came out at 0% and the inhibition at 40 ppm is 13%. In the test on Fusarium solani, the inhibition at 5 ppm turned out to be 63%, the inhibition at 10 ppm amounted to 50%, the inhibition at 20 ppm came out at 56% and the inhibition at 40 ppm was 75%.
Take `COc1cc(Oc2nsnc(Cl)c2=O)cc(OC)c1C(C)=O` [Compound 61, 3-[(4-acetyl-3,5-dimethoxy)-phenoxy]-5-chloro-4H--1,2,6-thiadiazin-4-one]: in the test on Pythium ultimum, the inhibition at 5 ppm was found to be 31%, the inhibition at 10 ppm came to 42%, the inhibition at 20 ppm was 100% and the inhibition at 40 ppm amounted to 100%. For the same compound, in the test with Fusarium solani, the inhibition at 5 ppm amounted to 16%, the inhibition at 10 ppm worked out at 46%, the inhibition at 20 ppm was found to be 23% and the inhibition at 40 ppm is 0%.
